In patent publication US20100160176A1, “RAT GENE […] OF DRUG TRANSPORTERS, CYTOCHROME P450s, TRANSFERASES AND NUCLEAR […] FOR PREDICTING DRUG EFFECTS” (NOAB BIOD[…]., priority 2008, published 2010):
Where two headings read alike, the source gives them in different places.

Tests used:
ABCD2 gene expression = test: Rat DTEx microarray gene expression profiling in drug-treated female rat primary hepatocytes (FIG. 109): ABCD2; assay type: in vitro ADME
Method: (§1) Images were analysed using QuantArray software (GSI Lumonics Inc.).

CYP3A1 gene expression = test: Rat DTEx microarray gene expression profiling in drug-treated female rat primary hepatocytes (FIG. 109): CYP3A1; conditions: female rat primary hepatocytes treated with the drug
From the text: The total RNA component of the nucleic acid lysate was isolated according to the manufacturer's instructions.

ABCC3 gene expression = test: Rat DTEx microarray gene expression profiling in drug-treated female rat primary hepatocytes (FIG. 109): ABCC3; assay type: in vitro ADME
Method: as §1

[1] = female rat primary hepatocytes treated with the drug, FIG. 109

SMILES: CC(=O)[C@H]1[C@H](C#N)C[C@H]2[C@@H]3CC=C4C[C@@H](O)CC[C@]4(C)[C@H]3CC[C@@]21C [PCN]
- effect on ABCD2 gene expression (normalized fluorescence intensity dendrogram plot) (ABCD2 gene expression; [1]): suppress
- effect on CYP3A1 gene expression (normalized fluorescence intensity dendrogram plot) (CYP3A1 gene expression): induce
- effect on ABCC3 gene expression (normalized fluorescence intensity dendrogram plot) (ABCC3 gene expression; [1]): suppresses gene expression

SMILES: C[C@@H]1C[C@H]2[C@@H]3CCC4=CC(=O)C=C[C@]4(C)[C@@]3(F)[C@@H](O)C[C@]2(C)[C@@]1(O)C(=O)CO [DEX, dexamethasone]
- effect on ABCD2 gene expression (normalized fluorescence intensity dendrogram plot) (ABCD2 gene expression): suppress
- effect on ABCC3 gene expression (normalized fluorescence intensity dendrogram plot) (ABCC3 gene expression): induces gene expression
